Assay results: article PMC9897792, “Discovery of novel 2-(4-(benzyloxy)-5-(hydroxyl) phenyl) benzothiazole derivatives as multifunctional MAO-B inhibitors for the treatment of Parkinson’s disease” (Journal of Enzyme Inhibition and Medicinal Chemistry, 2023)

How the values were obtained:
Type in all cases: cell-based
[1] = test system: TNF-α production in LPS-activated BV-2 microglia cells; assay: LPS-induced TNF-α production in BV-2 cells (ELISA); conditions: Mus musculus, 10.0 µM, LPS 1.0 µg/mL, read-out: inhibition rate of LPS-induced TNF-α production
Description: ELISA method was carried out to detect the inhibitory effects of 3h on LPS-induced TNF-α production. As shown in Figure 8(B), the level of TNF-α expression was dramatically raised when BV-2 cells were exposed to LPS (1.0 µg/mL).
(§1) ELISA and Griess reaction methods were performed to detect the inhibitory effect of 3h on the release of TNF-α and NO in LPS-stimulated BV-2 cells[46]^,[47]. BV-2 cells in the logarithmic phase were seeded into 96-well cell culture plate, and these cells were incubated at 37 °C for 24 h at the atmosphere of 5% CO2. After incubation, the culture solution was replaced by fresh one (90 µL without serum), and test compound solution (10 µL) was added. After addition, the plate was incubated for 30 min, then LPS (10 µL, 1.0 µg/ml in PBS) was added to each well, and the mixture would be incubated for another 24 h at 37 °C. After the final incubation, the supernatants were taken out to measure the level of TNF-α and NO according to the procedures depicted on the kits (kits were purchased from Nanjing Jiancheng Bioengineering Institute).

BV-2 cells = assay: Cytotoxicity towards BV-2 cells with or without LPS (MTT); conditions: up to 10.0 µM in the presence or absence LPS (1.0 µg/mL)
Description: The in vitro anti-neuroinflammatory activity of 3h was detected by using LPS-induced inflammation mode in BV-2 cells, with resveratrol as the positive control compound[45]. The cytotoxicities of resveratrol and 3h to BV-2 cells were firstly detected by MTT method.
Firstly, the MTT method was carried out to determine the cytotoxicity of 3h towards BV-2 cell line[45]. BV-2 cells in the logarithmic phase were seeded into 96-well cell culture plate, followed by the incubation at 37 °C for 24 h at the atmosphere of 5% CO2. After incubation, the culture was replaced by fresh one (90 µL without serum), and test compound solution (10 µL) was added. Then, the mixture was incubated for another 30 min, and MTT (100 µL, 0.5 mg/ml in PBS) was added to each well. After the final incubation at 37 °C for 4 h, the supernatants were removed, and the formazan was dissolved in 200 µL of DMSO. Then, the absorbance at 490 nm was determined by using a Varioskan Flash Multimode Reader (Thermo Scientific). As for the method to evaluate the cytotoxicity of 3h towards LPS-stimulated BV-2 cells, the procedures were almost similar, but after the incubation of cells with 3h, LPS (10 µL, 1.0 µg/mL) was added, and the mixture was further incubated for 24 h.

[2] = test system: NO release in LPS-activated BV-2 microglia cells; assay: LPS-induced NO release in BV-2 cells (Griess method); conditions: Mus musculus, 10.0 µM, LPS 1.0 µg/mL, read-out: inhibitory rate of LPS-induced NO release
Description: Then, Griess method was performed to measure the inhibitory effect of 3h on LPS-induced NO release in BV-2 cells. […] It reflected that LPS could induce the activation of BV-2 cells and induce neuroinflammation.
as §1

PC-12 cells [3] = assay: Cytotoxicity towards PC-12 cells (MTT); conditions: at the concentration of 10.0 µM
Description: (§2) MTT method was used to detect the in vitro neuroprotective effect of 3h on H2O2 induced PC-12 cells injury, with resveratrol as positive control. Firstly, the cytotoxicity of 3h to PC-12 cells was measured. […] […].
(§3) 3-(4,5-dimethylthiazol-2-yl)-2,5-diphenyltetrazolium bromide (MTT) method was conducted to measure the in vitro neuroprotective effect of 3h[44]. Firstly the cytotoxicity of 3h towards PC-12 cells was detected. In detail, PC-12 cells were seeded into 96-well cell culture plate in DMEM (100 µL, 1 × 10^5 cells per mL) firstly. Then, these cells were incubated at 37 °C for 24 h. After incubation, test compound solutions (10 µL) were added to the plate, and the mixture was incubated for another 2 h at 37 °C. Then, MTT solution (100 µL, 5 mg/ml in PBS) was added to each well, which would be incubated at 37 °C for final 4 h. After the final incubation, the supernatants were removed, and the formazan was dissolved in DMSO (150 µL). Then, the absorbance at 490 nm was determined by using a Varioskan Flash Multimode Reader (Thermo Scientific). As for the assay to evaluate the neuroprotective effect of 3h, the procedures were almost similar, but after the incubation of cells with 3h, H2O2 (100 µM) was added and the mixture was further incubated for 24 h.

PC-12 cells [4] = assay: Neuroprotective effect on H2O2 induced PC-12 cells injury (MTT); conditions: 10.0 µM; H2O2 100 µM (model 50.1%)
Description: as §2, §3

[5] = test system: ROS release in LPS-treated BV-2 cells; assay: LPS-induced ROS release in BV-2 cells (DCFH-DA probe); conditions: concentration not given, LPS 1.0 µg/mL
Description: The inhibitory effect of 3h on LPS-induced ROS release in BV-2 cells in vitro was detected by using 2′,7′-dichlorofluorescein diacetate (DCFH-DA) as probe to quantify the ROS level in LPS-treated BV-2 cells. Noticeably, the fluorescence intensity of control group was relatively low, indicating low level of ROS. […] The fluorescence values were further detected by using microplate reader (Figure 9(B)), and then the inhibition rates were calculated. […] BV-2 cells were incubated with test compound solution (10 µL) for 30 min, then LPS (10 µL, 1.0 µg/ml in PBS) was added to each well, and each well would be incubated for another 30 min at 37 °C. […] The fluorescence was measured with excitation and emission wavelengths at 488 and 525 nm on an inverted fluorescence microscope.

Oc1ccc(/C=C/c2cc(O)cc(O)c2)cc1 [resveratrol, reference compound]
inhibition at 10 µM [1]: 50.3%
BV-2 cell viability (cytotoxicity) (BV-2 cells): did not significantly alter the BV-2 cell viability
inhibition at 10 µM [2]: 51.2%
PC-12 cell viability (cytotoxicity) (PC-12 cells [3]): did not significantly alter the PC-12 cell viability
cell viability of H2O2-injured PC-12 cells (PC-12 cells [4]): 64.3 % of control value
inhibition rate of LPS-induced ROS release [5]: 59.8%
